The values that follow come from ChEMBL document CHEMBL4765465, “Photoactive Bifunctional Degraders: Precision Tools To Regulate Protein Stability” (J Med Chem, 2020).

Data set [1] can be described thus: Half life of compound by UV-Visible spectrophotometric method. Format: physicochemical.
Another data set concerns CWR22R. The data set is described as follows: Growth inhibition of human 22Rv1 cells preincubated for 15 mins followed by UV irradiation and measured after 72 hrs by Celltiter-Glo assay. Type of data set: functional. Particulars: time 72.25 hrs. In general terms: Cellular ATP, detected with luciferase, serves as a proxy for viable cell number.

Usually half-life stands for the time needed for the level to fall by half in the phase considered. Higher therefore signals slow decline.

In data set [1], `COc1cc(COC(=O)N2C(=O)CCC(N3C(=O)c4cccc(OCC(=O)NCCCCNC(=O)C[C@@H]5N=C(c6ccc(Cl)cc6)c6c(sc(C)c6C)-n6c(C)nnc65)c4C3=O)C2=O)c([N+](=O)[O-])cc1OC` (some centres not stated) came in with a half-life of 58 min.

For the compound `Cc1sc2c(c1C)C(c1ccc(Cl)cc1)=N[C@@H](CC(=O)NCCOCCOCCNC(=O)COc1cccc3c1C(=O)N(C1CCC(=O)N(COC(C)c4cc5c(cc4[N+](=O)[O-])OCO5)C1=O)C3=O)c1nnc(C)n1-2` (some centres not stated), in the data set with CWR22R, the “growth inhibition (GI)” value is given as “<=39%”.
